Experimental findings from ChEMBL document CHEMBL4261619, “Sentulic acid isolated from Sandoricum koetjape Merr attenuates lipopolysaccharide and interferon gamma co-stimulated nitric oxide production in murine macrophage RAW264 cells” (Bioorg Med Chem Lett, 2018) are described below.

The target in assay [1] is T1, Toll-like receptor 4 (Mus musculus) (UniProt Q9QUK6).
T1 sequence (whole entry): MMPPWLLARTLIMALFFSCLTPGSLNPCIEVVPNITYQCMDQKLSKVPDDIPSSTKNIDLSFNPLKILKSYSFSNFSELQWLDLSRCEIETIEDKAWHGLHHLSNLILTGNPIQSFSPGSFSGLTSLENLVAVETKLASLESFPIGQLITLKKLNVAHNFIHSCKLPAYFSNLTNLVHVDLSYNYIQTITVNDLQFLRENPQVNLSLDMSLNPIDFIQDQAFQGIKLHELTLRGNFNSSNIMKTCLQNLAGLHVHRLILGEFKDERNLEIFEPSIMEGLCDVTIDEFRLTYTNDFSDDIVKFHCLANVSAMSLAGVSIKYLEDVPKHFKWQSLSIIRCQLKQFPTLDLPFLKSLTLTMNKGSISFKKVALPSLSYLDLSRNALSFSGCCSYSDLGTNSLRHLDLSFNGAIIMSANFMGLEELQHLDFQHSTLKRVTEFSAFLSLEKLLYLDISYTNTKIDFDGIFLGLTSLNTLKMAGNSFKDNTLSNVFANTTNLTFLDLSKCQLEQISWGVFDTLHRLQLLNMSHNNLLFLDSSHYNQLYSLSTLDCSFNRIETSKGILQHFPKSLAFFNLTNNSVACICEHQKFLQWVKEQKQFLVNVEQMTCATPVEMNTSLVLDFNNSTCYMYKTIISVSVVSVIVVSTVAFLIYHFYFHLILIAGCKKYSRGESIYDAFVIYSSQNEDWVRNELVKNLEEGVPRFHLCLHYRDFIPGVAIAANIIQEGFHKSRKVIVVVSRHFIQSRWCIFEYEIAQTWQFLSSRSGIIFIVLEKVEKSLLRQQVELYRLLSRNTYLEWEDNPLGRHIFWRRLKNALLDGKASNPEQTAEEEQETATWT
In words: Inhibition of LPS binding to TLR4 in IFNgamma-stimulated mouse RAW264.7 cells assessed as reduction in nitric oxide production at 25 to 100 uM pretreated for 2 hrs followed by LPS/IFNgamma stimulation and measured after 24 hrs. It is filed as cell-based.

Assay [2] has as its target T1, Toll-like receptor 4 (Mus musculus). In words: Inhibition of LPS binding to TLR4 in IFNgamma-stimulated mouse RAW264.7 cells assessed as reduction in nitric oxide production pretreated for 2 hrs followed by LPS/IFNgamma stimulation and measured after 24 hrs. It is filed as cell-based.

Calls of active or inactive are those of the source. The calls are words filed in the database; no cut-off is given here.

As for `CC1(C)CC[C@]2(C)CC[C@]3(C(=O)O)C(=CC[C@@H]4[C@@]5(C)CCC(=O)C(C)(C)[C@@H]5CC[C@]43C)[C@@H]2C1`, the inhibition entry in assay [1] is “inactive”.
`C[C@H]1[C@H](C)CC[C@]2(C(=O)O)CC[C@]3(C)C(=CC[C@@H]4[C@@]5(C)CC[C@H](O)C(C)(C)[C@@H]5CC[C@]43C)[C@H]12`: the inhibition result in assay [2] is “Dose-dependent effect”.
Turning to `CC1(C)[C@@H](O)CC[C@]2(C)[C@H]3C(=O)C=C4[C@@H]5C[C@@](C)(C(=O)O)CC[C@]5(C)CC[C@@]4(C)[C@]3(C)CC[C@@H]12`, the inhibition entry in assay [1] is “inactive”.
For the compound `CC1(C)CC[C@]2(C(=O)O)CC[C@]3(C)C(=CC[C@@H]4[C@@]5(C)CC[C@H](O)C(C)(C)[C@@H]5CC[C@]43C)[C@@H]2C1`, in assay [1], the inhibition result is “inactive”.
The same measure, in the same setting: next, `C=C(C)[C@@H]1CC[C@]2(C(=O)O)CC[C@]3(C)[C@H](CC[C@@H]4[C@@]5(C)CC[C@H](O)C(C)(C)[C@@H]5CC[C@]43C)[C@@H]12`: “inactive”.
